Like-named read-outs stand apart in the source and are kept apart here.
Experiments:
[1] = target: T1, human ERβ (Homo sapiens, UniProt Q92731); test: Competition with [3H]-17β-estradiol for binding to ERβ ligand binding domain
T1 construct: made in house; host or cells: E. coli (crude lysate)
Experimental: (§1) This test procedure provides the methodology for one to determine whether a particular compound binds to the estrogen receptor (and is therefore “estrogenic”) and whether there is selectivity for ERα or ERβ. […] The procedure used is briefly described below. A crude lysate of E. coli expressing the estrogen receptor ligand binding domains (D,E, & F) of human ERα or ERβ was prepared. Both receptors and compounds were diluted in 1× Dulbecco's PBS (DPBS) supplemented with 1 mM EDTA. […] After between 5 and 15 hours at room temperature, the plates were washed with DPBS/1 mM EDTA and bound radioactivity determined by liquid scintillation counting.

[2] = target: T2, human ERα (Homo sapiens, UniProt P03372); test: Competition with [3H]-17β-estradiol for binding to ERα ligand binding domain; settings: E. coli lysate expressing ER ligand binding domains (D,E,&F); 2 nM [3H]-17β-estradiol; 5-15 hours at room temperature
T2 construct: made in house; host or cells: E. coli (crude lysate)
T2 sequence (P03372 311-547 limits assumed): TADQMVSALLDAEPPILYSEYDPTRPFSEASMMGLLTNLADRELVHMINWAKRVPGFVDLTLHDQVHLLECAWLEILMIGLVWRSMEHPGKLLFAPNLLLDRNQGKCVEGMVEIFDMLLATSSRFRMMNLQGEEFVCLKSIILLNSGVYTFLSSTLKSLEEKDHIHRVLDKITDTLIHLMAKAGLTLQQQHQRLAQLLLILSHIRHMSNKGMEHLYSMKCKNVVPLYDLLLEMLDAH
Experimental: as §1

[3] = E. coli lysate expressing ER ligand binding domains (D,E,&F); 2 nM [3H]-17β-estradiol; 5-15 hours at room temperature; read-out: ERβ IC50
[4] = read-out: ERβ IC50; E. coli lysate expressing ER ligand binding domains (D,E,&F); 2 nM [3H]-17β-estradiol; 5-15 hours at room temperature

T1 sequence (Q92731 264-498 limits assumed): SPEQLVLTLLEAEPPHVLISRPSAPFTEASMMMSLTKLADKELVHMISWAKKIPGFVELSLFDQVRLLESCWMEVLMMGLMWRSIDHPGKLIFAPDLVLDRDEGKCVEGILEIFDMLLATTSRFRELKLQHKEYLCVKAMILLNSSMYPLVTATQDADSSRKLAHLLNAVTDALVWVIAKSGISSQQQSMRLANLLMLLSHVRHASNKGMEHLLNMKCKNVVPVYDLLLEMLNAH

| SMILES | IC50 [1, 3] [nM] | IC50 [2] [nM] | IC50 [1, 4] [nM] |
| --- | --- | --- | --- |
| O=c1c2ccc(O)cc2oc2c1oc1cc(O)ccc12 [2,7-Dihydroxy-5,11-dioxa-benzo[b]fluoren-10-one] | 32 | 550 | – |
| O=c1c2cc(O)ccc2oc2c1oc1cc(O)ccc12 [2,8-Dihydroxy-5,11-dioxa[b]fluoren-10-one] | 192 | 1500 | – |
| O=c1c2oc3ccc(O)cc3c2oc2cc(O)cc(O)c12 [3,7,9-Trihydroxy-5,11-dioxa-benzo[b]fluoren-10-one] | 70 | 2950 | – |
| O=c1c2oc3ccccc3c2oc2cc(O)cc(O)c12 [7,9-Dihydroxy-5,11-dioxa-benzo[b]fluoren-10-one] | – | – | 3190 |
| O=c1c2ccc(O)cc2oc2c1sc1ccccc12 [7-Hydroxy-5-oxa-11-thia-benzo[b]fluoren-10-one] | – | – | 2930 |

More lines, main results first:

| IC50 [1, 3] [nM] | IC50 [2] [nM] | SMILES | IC50 [1, 4] [nM] |
| --- | --- | --- | --- |
| 850 | – | O=c1c2ccc(O)cc2oc2c1oc1ccc(O)cc12 [3,7-Dihydroxy-5,11-dioxa[b]fluoren-10-one] | – |
| 44 | 188 | O=c1c2cc(O)ccc2oc2c1oc1ccc(O)cc12 [3,8-Dihydroxy-5,11-dioxa[b]fluoren-10-one] | – |
| 760 | 3670 | O=c1c2sc3ccccc3c2oc2cc(O)cc(O)c12 [7,9-Dihydroxy-5-oxa-11-thia-benzo[b]fluoren-10-one] | – |
| 2710 | > 5000 | O=c1c2ccc(O)cc2oc2c1oc1c3ccccc3ccc21 [9-Hydroxy-7,13-dioxa-dibenzo[a,h]fluoren-12-one] | – |

Source: patent US6559177B2, “5, 11-Dioxa-benzo[b]fluoren-10-one and 5-oxa-11-thia-benzo[b]fluoren-10-ones as estrogenic agents” (Wyeth, priority 2001, dated 2003)
